# Source: patent publication US20260347338A1, “PYRIMIDINE/PYRIDINE DERIVATIVES OR SALTS THEREOF AND PHARMACEUTICAL COMPOSITIONS COMPRISING THE SAME” (YUHAN CORPORATION, priority 2023, published 2026)
# pIC50: −log10 of the molar value. Structures can show the parent of a compound that is named as a salt.
# Target: T1, human recombinant HPK1 (Homo sapiens, UniProt Q92918)
# T1 construct: purchased BPS Bioscience
# Assay: Inhibitory activity against human recombinant HPK1 (TR-FRET)
# Type: biochemical
# Settings: ULight-p70S6K peptide, ATP at Km, room temperature, 1 hour, 0.32 to 1000 nM compound
# Summary of the method: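 Recombinant human HPK1 with ULight-p70S6K peptide and ATP at Km, 1 h at room temperature in HEPES pH 7.4 buffer with Mg2+, Mn2+, EGTA, DTT; compounds 0.32–1000 nM final. EDTA stop, Eu-anti-phosphopeptide TR-FRET read (665 nm); IC50 from % inhibition versus DMSO, binned A–D at 10, 50, 100 nM.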
# T1 sequence (Q92918 whole entry): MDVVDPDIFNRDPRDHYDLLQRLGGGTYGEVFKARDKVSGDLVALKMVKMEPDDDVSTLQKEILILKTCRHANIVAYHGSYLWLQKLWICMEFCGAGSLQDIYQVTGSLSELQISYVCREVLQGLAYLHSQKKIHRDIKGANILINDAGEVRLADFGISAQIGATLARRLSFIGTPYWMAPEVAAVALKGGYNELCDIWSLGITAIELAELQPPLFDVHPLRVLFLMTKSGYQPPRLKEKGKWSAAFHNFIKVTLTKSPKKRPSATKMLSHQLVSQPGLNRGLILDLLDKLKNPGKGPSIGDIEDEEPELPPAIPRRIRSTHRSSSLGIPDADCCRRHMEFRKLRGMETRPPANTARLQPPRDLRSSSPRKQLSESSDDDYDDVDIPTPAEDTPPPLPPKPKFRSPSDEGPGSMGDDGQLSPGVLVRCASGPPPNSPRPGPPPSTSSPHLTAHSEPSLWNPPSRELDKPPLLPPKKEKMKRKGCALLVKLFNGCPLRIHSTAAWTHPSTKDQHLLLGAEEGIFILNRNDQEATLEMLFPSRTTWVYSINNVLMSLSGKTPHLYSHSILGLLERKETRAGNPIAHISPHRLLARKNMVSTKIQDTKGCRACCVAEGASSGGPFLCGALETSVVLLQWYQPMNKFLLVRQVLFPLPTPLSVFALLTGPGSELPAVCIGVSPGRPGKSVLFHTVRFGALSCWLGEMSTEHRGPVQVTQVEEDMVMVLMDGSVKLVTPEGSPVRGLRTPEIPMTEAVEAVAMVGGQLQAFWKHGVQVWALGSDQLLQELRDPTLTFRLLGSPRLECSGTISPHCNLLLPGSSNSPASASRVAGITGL
row,Structure (SMILES),pIC50
1,"COc1cccc(F)c1-c1nccc(Nc2cc(N3CCC[C@H](N)C3)c(-c3cc(C)c(OC)c(C)c3)cn2)n1 [Example 285, (S)-N-(4-(3-aminopiperidin-1-yl)-5-(4-methoxy-3,5-dimethylphenyl)pyridin-2-yl)-2-(2-fluoro-6-methoxyphenyl)pyrimidin-4-amine hydrochloride]",≥ 8.00
2,"COc1cccc(F)c1-c1nccc(Nc2cc(N3CCC[C@@H](C(N)=O)C3)c(-c3cnn(C4CCOCC4)c3)cn2)n1 [Example 51, (R)-1-(2-((2-(2-fluoro-6-methoxyphenyl)pyrimidin-4-yl)amino)-5-(1-(tetrahydro-2H-pyran-4-yl)-1H-pyrazol-4-yl)pyridin-4-yl)piperidin-3-carboxamide]",7.00 to 7.30
3,"COc1cccc(F)c1-c1nccc(Nc2cc(N3CC[C@H](F)[C@H](N)C3)c(-c3cnn(C(F)F)c3)cn2)n1 [Example 207, N-(4-((3R,4S)-3-amino-4-fluoropiperidin-1-yl)-5-(1-(difluoromethyl)-1H-pyrazol-4-yl)pyridin-2-yl)-2-(2-fluoro-6-methoxyphenyl)pyrimidin-4-amine hydrochloride]",≥ 8.00
4,"COc1ccc(F)c(F)c1-c1nccc(Nc2cc(N3CCC[C@H](O)C3)c(-c3cnn(C4CCOCC4)c3)cn2)n1 [Example 24, (S)-1-(2-((2-(2,3-difluoro-6-methoxyphenyl)pyrimidin-4-yl)amino)-5-(1-(tetrahydro-2H-pyran-4-yl)-1H-pyrazol-4-yl)pyridin-4-yl)piperidin-3-ol]",≥ 8.00
5,"COc1cccc(F)c1-c1nccc(Nc2cc(N3CCC[C@H](N)C3)c(-c3ccc(C(=O)N(C)C)c(F)c3)cn2)n1 [Example 290, (S)-4-(4-(3-aminopiperidin-1-yl)-6-((2-(2-fluoro-6-methoxyphenyl)pyrimidin-4-yl)amino)pyridin-3-yl)-2-fluoro-N,N-dimethylbenzamide hydrochloride]",≥ 8.00
6,"COc1cccc(F)c1-c1nccc(Nc2cc(N3CCC[C@H](C(N)=O)C3)c(-c3cnn(C4CCOCC4)c3)cn2)n1 [Example 50, (S)-1-(2-((2-(2-fluoro-6-methoxyphenyl)pyrimidin-4-yl)amino)-5-(1-(tetrahydro-2H-pyran-4-yl)-1H-pyrazol-4-yl)pyridin-4-yl)piperidin-3-carboxamide]",< 7.00
7,"N[C@H]1CCCN(c2cc(Nc3ccnc(-c4cc5nccnc5cc4F)n3)ncc2-c2cnn(CC(F)(F)F)c2)C1 [Example 89, (S)-N-(4-(3-aminopiperidin-1-yl)-5-(1-(2,2,2-trifluoroethyl)-1H-pyrazol-4-yl)pyridin-2-yl)-2-(7-fluoroquinoxalin-6-yl)pyrimidin-4-amine hydrochloride]",≥ 8.00
8,"COc1cc(F)cc(F)c1-c1nccc(Nc2cc(N3CCC[C@H](N)C3)c(C#Cc3cnn(C(F)(F)F)c3)cn2)n1 [Example 159, (S)-N-(4-(3-aminopiperidin-1-yl)-5-((1-(trifluoromethyl)-1H-pyrazol-4-yl)ethynyl)pyridin-2-yl)-2-(2,4-difluoro-6-methoxyphenyl)pyrimidin-4-amine hydrochloride]",≥ 8.00
9,"COc1cccc(F)c1-c1nccc(Nc2cc(N3CCC[C@H](N)C3)c(-c3cnn(C4COC4)c3)cn2)n1 [Example 277, (S)-N-(4-(3-aminopiperidin-1-yl)-5-(1-(oxetan-3-yl)-1H-pyrazol-4-yl)pyridin-2-yl)-2-(2-fluoro-6-methoxyphenyl)pyrimidin-4-amine hydrochloride]",≥ 8.00
10,"COc1cccc(F)c1-c1nccc(Nc2cc(N3CCC[C@H](N)C3)c(-c3cnn(CC(F)F)c3)cn2)n1 [Example 134, (S)-N-(4-(3-aminopiperidin-1-yl)-5-(1-(2,2-difluoroethyl)-1H-pyrazol-4-yl)pyridin-2-yl)-2-(2-fluoro-6-methoxyphenyl)pyrimidin-4-amine hydrochloride]",≥ 8.00
11,"COc1cccc(F)c1-c1nc(Nc2cc(N3CCC[C@H](O)C3)c(-c3cnn(C4CCOCC4)c3)cn2)ccc1F [Example 40, (3S)-1-(2-((5-fluoro-6-(2-fluoro-6-methoxyphenyl)pyridin-2-yl)amino)-5-(1-(tetrahydro-2H-pyran-4-yl)-1H-pyrazol-4-yl)pyridin-4-yl)piperidin-3-ol]",≥ 8.00
12,"COc1cc(F)cc(F)c1-c1nccc(Nc2cc(N3CCC[C@H](O)C3)c(-c3cnn(C(F)F)c3)cn2)n1 [Example 182, (S)-1-(2-((2-(2,4-difluoro-6-methoxyphenyl)pyrimidin-4-yl)amino)-5-(1-(difluoromethyl)-1H-pyrazol-4-yl)pyridin-4-yl)piperidin-3-ol]",≥ 8.00
13,"COc1cc(CN(C)C)cc(F)c1-c1nccc(Nc2cc(N3CCC[C@H](N)C3)c(-c3cnn(C(F)F)c3)cn2)n1 [Example 104, (S)-N-(4-(3-aminopiperidin-1-yl)-5-(1-(difluoromethyl)-1H-pyrazol-4-yl)pyridin-2-yl)-2-(4-((dimethylamino)methyl)-2-fluoro-6-methoxyphenyl)pyrimidin-4-amine hydrochloride]",≥ 8.00
14,"COc1cccc(F)c1-c1nccc(Nc2cc(N3CCC[C@H](N)C3)c(C#Cc3cnn(CC(F)(F)F)c3)cn2)n1 [Example 166, (S)-N-(4-(3-aminopiperidin-1-yl)-5-((1-(2,2,2-trifluoroethyl)-1H-pyrazol-4-yl)ethynyl)pyridin-2-yl)-2-(2-fluoro-6-methoxyphenyl)pyrimidin-4-amine hydrochloride]",≥ 8.00
15,"COc1cc(F)cc(F)c1-c1nccc(Nc2cc(N3C[C@@H](C)C[C@H](N)C3)c(-c3cnn(C(F)F)c3)cn2)n1 [Example 210, N-(4-((3S,5S)-3-amino-5-methylpiperidin-1-yl)-5-(1-(difluoromethyl)-1H-pyrazol-4-yl)pyridin-2-yl)-2-(2,4-difluoro-6-methoxyphenyl)pyrimidin-4-amine hydrochloride]",≥ 8.00

# Next, values leading:
row,pIC50,Structure (SMILES)
1,≥ 8.00,"COc1cc(F)cc(F)c1-c1nc(Nc2cc(N3CCC[C@H](O)C3)c(C#CC3CCOCC3)cn2)ccc1[N+](=O)[O-] [Example 225, (3S)-1-(2-((6-(2,4-difluoro-6-methoxyphenyl)-5-nitropyridin-2-yl)amino)-5-((tetrahydro-2H-pyran-4-yl)ethynyl)pyridin-4-yl)piperidin-3-ol]"
2,≥ 8.00,"COc1cc(F)cc(F)c1-c1nccc(Nc2cc(N3C[C@@H](N)C[C@H](F)C3)c(-c3cnn(CC(F)(F)F)c3)cn2)n1 [Example 333, N-(4-((3S,5S)-3-amino-5-fluoropiperidin-1-yl)-5-(1-(2,2,2-trifluoroethyl)-1H-pyrazol-4-yl)pyridin-2-yl)-2-(2,4-difluoro-6-methoxyphenyl)pyrimidin-4-amine hydrochloride]"
3,≥ 8.00,"COc1cccc(F)c1-c1nccc(Nc2cc(N3CCC4(CCNC4)CC3)c(-c3cnn(C4CCOCC4)c3)cn2)n1 [Example 92, N-(4-(2,8-diazaspiro[4.5]decan-8-yl)-5-(1-(tetrahydro-2H-pyran-4-yl)-1H-pyrazol-4-yl)pyridin-2-yl)-2-(2-fluoro-6-methoxyphenyl)pyrimidin-4-amine hydrochloride]"
4,≥ 8.00,"COc1cccc(F)c1-c1nccc(Nc2cc(N3CCC[C@H](O)C3)c(-c3ccc(N4CCOCC4)nc3)cn2)n1 [Example 20, (S)-1-(6-((2-(2-fluoro-6-methoxyphenyl)pyrimidin-4-yl)amino)-6′-morpholino-[3,3′-bipyridin]-4-yl)piperidin-3-ol]"
5,≥ 8.00,"COc1cccc(F)c1-c1nc(Nc2cc(N3CCC[C@H](O)C3)c(C(N)=O)cn2)ccc1N [Example 193, 6-((5-amino-6-(2-fluoro-6-methoxyphenyl)pyridin-2-yl)amino)-4-((S)-3-hydroxypiperidin-1-yl)nicotinamide]"
6,≥ 8.00,"COc1cccc(F)c1-c1nccc(Nc2cc(N3CCCC(CF)C3)c(-c3cnn(C4CCOCC4)c3)cn2)n1 (centres unmarked) [Example 85, 2-(2-fluoro-6-methoxyphenyl)-N-(4-(3-(fluoromethyl)piperidin-1-yl)-5-(1-(tetrahydro-2H-pyran-4-yl)-1H-pyrazol-4-yl)pyridin-2-yl)pyrimidin-4-amine]"
7,≥ 8.00,"COc1cccc(F)c1-c1nccc(Nc2cc(N3CCC[C@H](N)C3)c(-c3ccc(N4CCCC4)nc3)cn2)n1 [Example 119, (S)-4-(3-aminopiperidin-1-yl)-N-(2-(2-fluoro-6-methoxyphenyl)pyrimidin-4-yl)-6′-(pyrrolidin-1-yl)-[3,3′-bipyridin]-6-amine hydrochloride]"
8,≥ 8.00,"COc1cccc(F)c1-c1nccc(Nc2cc(N3C[C@@H](C)C[C@H](N)C3)c(-c3cnn(C(F)F)c3)cn2)n1 [Example 205, N-(4-((3S,5S)-3-amino-5-methylpiperidin-1-yl)-5-(1-(difluoromethyl)-1H-pyrazol-4-yl)pyridin-2-yl)-2-(2-fluoro-6-methoxyphenyl)pyrimidin-4-amine hydrochloride]"
9,≥ 8.00,"COc1cccc(F)c1-c1nc(Nc2cc(N3CCC[C@H](O)C3)c(-c3cnn(C4CCOCC4)c3)cn2)ccc1C(N)=O [Example 112, 2-(2-fluoro-6-methoxyphenyl)-6-((4-((S)-3-hydroxypiperidin-1-yl)-5-(1-(tetrahydro-2H-pyran-4-yl)-1H-pyrazol-4-yl)pyridin-2-yl)amino)nicotinamide]"
10,≥ 8.00,"COc1cccc(F)c1-c1nccc(Nc2cc(N3CCC[C@H](O)C3)c(-c3cnn(C)c3)cn2)n1 [Example 12, (S)-1-(2-((2-(2-fluoro-6-methoxyphenyl)pyrimidin-4-yl)amino)-5-(1-methyl-1H-pyrazol-4-yl)pyridin-4-yl)piperidin-3-ol]"
11,≥ 8.00,"COc1cccc(F)c1-c1nccc(Nc2cc(N3CCC[C@H](N)C3)c(-c3cnc4c(c3)OCC(=O)N4C)cn2)n1 [Example 274, (S)-7-(4-(3-aminopiperidin-1-yl)-6-((2-(2-fluoro-6-methoxyphenyl)pyrimidin-4-yl)amino)pyridin-3-yl)-4-methyl-2H-pyrido[3,2-b][1,4]oxazin-3(4H)-one hydrochloride]"
